Assay results reported in patent US11001587B2, “Substituted indazoles as phosphatidylinositol kinase inhibitors” (CUROVIR AB, priority 2017, dated 2021).

Assays:
[1] = Metabolic stability in human liver microsomes; assay type: in vitro ADME
Protocol: (§1) Metabolic stability in human and rat liver microsomesMetabolic stability was studied using human (HLM) or rat (RLM) liver microsomes. The final composition of the assay included 5 μM of test item and reference item (Diclofenac or Imipramine) prepared from DMSO stock, so that the final concentration of DMSO was 0.1%, 0.125 mg/mL microsomal protein and cofactors (5.0 mM G-6-P, 0.06 U/mL G-6-PDH, 2.0 mM MgCl2, 1.0 mM NADP^+). Test and reference items were incubated with human or rat liver microsomes with or without cofactors. The reaction mixture (100 μL) was removed at specified time periods and the reaction was stopped by addition of stop solution. The samples were extracted in presence of internal standard and were analyzed using LC-MS/MS. The percent of the test/reference item remaining after a specified incubation period was calculated with respect to the peak area ratio at time 0 min.

[2] = system: Enterovirus 30; assay: In vitro CPE assay in mammalian cell culture, EV30; assay type: cell-based; conditions: viral cytopathic effect in mammalian cell culture, read-out: EV30 inhibition capacity (IC50)
[3] = system: coxsackie B5 virus; assay: In vitro CPE assay in mammalian cell culture, B5; assay type: cell-based; conditions: viral cytopathic effect in mammalian cell culture, read-out: B5 inhibition capacity (IC50)
[4] = molecular target: PI3Kβ (Homo sapiens, UniProt P42338); assay: PI3 kinase inhibition HTRF assay; assay type: biochemical; conditions: * no inhibition at the highest tested concentration 1 μM
Protocol: (§2) Phosphatidyl inositol kinase inhibition assay Inhibition of PI4 kinases was studied using the ADP-Glo™ Kinase Assay which is a luminescent kinase assay that measures ADP formed from a kinase reaction, wherein ADP is converted into ATP, which is converted into light by Ultra-Glo™ Luciferase. The assay is performed in two steps; first, after the kinase reaction, an equal volume of ADP-Glo™ Reagent is added to terminate the kinase reaction and deplete the remaining ATP. In the second step, the Kinase Detection Reagent is added, which simultaneously converts ADP to ATP and allows the newly synthesized ATP to be measured using a coupled luciferase/luciferin reaction. The luminescent signal produced is proportional to the activity of the kinase. Inhibition of PI3 kinases was studied using the HTRF (homogeneous time-resolved fluorescence) assay, which is a universal method for identifying and characterizing the phosphotransferase activity induced by any ATP/ADP dependent target. The formation of ADP was detected by a specific monoclonal antibody labeled with Eu^3+ cryptate, and directly correlated with the amount of phosphorylated substrate.

[5] = molecular target: PI3Kα (Homo sapiens, UniProt P42336); assay: PI3 kinase inhibition HTRF assay; assay type: biochemical; conditions: * no inhibition at the highest tested concentration 1 μM
Chain of PI3Kα (P42336 whole entry, species assumed): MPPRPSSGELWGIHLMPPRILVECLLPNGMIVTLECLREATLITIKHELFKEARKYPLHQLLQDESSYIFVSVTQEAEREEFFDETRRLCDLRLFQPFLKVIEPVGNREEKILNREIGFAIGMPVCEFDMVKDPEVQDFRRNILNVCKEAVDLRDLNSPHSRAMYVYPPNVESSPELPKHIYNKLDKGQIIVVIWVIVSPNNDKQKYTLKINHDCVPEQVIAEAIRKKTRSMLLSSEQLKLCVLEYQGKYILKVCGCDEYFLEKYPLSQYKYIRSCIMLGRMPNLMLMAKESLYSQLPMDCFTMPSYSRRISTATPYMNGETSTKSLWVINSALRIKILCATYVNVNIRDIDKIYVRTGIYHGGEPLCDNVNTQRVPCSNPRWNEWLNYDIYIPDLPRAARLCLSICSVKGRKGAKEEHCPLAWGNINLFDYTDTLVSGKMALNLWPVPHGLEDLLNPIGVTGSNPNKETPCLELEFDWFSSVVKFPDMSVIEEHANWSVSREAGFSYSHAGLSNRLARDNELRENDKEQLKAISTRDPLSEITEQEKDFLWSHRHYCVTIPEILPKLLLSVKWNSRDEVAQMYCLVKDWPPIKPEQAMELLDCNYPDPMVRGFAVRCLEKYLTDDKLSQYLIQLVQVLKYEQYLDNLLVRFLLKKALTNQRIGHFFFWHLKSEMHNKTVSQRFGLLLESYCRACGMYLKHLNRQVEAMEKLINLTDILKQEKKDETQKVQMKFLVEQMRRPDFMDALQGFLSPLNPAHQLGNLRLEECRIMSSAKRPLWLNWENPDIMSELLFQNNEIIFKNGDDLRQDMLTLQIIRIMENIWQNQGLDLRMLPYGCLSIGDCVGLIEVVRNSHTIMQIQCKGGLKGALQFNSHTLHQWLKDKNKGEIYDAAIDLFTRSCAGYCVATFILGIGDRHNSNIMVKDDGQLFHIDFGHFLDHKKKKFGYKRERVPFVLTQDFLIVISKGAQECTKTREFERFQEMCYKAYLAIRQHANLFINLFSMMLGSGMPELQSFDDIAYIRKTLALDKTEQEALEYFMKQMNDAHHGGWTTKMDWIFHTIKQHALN
Chain of PI3Kα (P27986 whole entry partner, species assumed): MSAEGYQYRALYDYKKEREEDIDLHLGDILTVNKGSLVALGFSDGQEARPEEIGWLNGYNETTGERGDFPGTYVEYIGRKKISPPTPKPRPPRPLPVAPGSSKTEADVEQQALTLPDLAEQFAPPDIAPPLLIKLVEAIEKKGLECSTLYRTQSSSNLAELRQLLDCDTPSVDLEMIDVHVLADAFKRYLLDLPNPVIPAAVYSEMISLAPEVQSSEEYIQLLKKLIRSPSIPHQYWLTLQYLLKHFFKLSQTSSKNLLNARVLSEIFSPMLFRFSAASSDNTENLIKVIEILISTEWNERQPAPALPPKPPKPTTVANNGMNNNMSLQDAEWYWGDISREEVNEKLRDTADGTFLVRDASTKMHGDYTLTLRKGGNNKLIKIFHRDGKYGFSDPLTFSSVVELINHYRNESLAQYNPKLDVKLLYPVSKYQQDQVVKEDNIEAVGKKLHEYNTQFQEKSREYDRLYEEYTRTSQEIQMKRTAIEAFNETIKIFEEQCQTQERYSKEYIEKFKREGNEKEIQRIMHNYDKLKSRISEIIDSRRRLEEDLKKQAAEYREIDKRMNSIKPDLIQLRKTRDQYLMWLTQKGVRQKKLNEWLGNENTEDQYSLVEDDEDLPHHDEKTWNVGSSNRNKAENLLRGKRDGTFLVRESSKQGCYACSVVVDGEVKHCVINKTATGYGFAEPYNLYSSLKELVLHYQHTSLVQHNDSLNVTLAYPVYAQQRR
Protocol: as §2

[6] = system: Enterovirus 71; assay: In vitro CPE assay in mammalian cell culture, EV71; assay type: cell-based; conditions: Enterovirus A, viral cytopathic effect in mammalian cell culture, read-out: EV71 inhibition capacity (IC50)
[7] = molecular target: PI4KIIIα (Homo sapiens, UniProt P42356); assay: Phosphatidyl inositol kinase inhibition assay (ADP-Glo Kinase Assay); assay type: biochemical; conditions: * no inhibition at the highest tested concentration 1 μM
Chain of PI4KIIIα (P42356 whole entry): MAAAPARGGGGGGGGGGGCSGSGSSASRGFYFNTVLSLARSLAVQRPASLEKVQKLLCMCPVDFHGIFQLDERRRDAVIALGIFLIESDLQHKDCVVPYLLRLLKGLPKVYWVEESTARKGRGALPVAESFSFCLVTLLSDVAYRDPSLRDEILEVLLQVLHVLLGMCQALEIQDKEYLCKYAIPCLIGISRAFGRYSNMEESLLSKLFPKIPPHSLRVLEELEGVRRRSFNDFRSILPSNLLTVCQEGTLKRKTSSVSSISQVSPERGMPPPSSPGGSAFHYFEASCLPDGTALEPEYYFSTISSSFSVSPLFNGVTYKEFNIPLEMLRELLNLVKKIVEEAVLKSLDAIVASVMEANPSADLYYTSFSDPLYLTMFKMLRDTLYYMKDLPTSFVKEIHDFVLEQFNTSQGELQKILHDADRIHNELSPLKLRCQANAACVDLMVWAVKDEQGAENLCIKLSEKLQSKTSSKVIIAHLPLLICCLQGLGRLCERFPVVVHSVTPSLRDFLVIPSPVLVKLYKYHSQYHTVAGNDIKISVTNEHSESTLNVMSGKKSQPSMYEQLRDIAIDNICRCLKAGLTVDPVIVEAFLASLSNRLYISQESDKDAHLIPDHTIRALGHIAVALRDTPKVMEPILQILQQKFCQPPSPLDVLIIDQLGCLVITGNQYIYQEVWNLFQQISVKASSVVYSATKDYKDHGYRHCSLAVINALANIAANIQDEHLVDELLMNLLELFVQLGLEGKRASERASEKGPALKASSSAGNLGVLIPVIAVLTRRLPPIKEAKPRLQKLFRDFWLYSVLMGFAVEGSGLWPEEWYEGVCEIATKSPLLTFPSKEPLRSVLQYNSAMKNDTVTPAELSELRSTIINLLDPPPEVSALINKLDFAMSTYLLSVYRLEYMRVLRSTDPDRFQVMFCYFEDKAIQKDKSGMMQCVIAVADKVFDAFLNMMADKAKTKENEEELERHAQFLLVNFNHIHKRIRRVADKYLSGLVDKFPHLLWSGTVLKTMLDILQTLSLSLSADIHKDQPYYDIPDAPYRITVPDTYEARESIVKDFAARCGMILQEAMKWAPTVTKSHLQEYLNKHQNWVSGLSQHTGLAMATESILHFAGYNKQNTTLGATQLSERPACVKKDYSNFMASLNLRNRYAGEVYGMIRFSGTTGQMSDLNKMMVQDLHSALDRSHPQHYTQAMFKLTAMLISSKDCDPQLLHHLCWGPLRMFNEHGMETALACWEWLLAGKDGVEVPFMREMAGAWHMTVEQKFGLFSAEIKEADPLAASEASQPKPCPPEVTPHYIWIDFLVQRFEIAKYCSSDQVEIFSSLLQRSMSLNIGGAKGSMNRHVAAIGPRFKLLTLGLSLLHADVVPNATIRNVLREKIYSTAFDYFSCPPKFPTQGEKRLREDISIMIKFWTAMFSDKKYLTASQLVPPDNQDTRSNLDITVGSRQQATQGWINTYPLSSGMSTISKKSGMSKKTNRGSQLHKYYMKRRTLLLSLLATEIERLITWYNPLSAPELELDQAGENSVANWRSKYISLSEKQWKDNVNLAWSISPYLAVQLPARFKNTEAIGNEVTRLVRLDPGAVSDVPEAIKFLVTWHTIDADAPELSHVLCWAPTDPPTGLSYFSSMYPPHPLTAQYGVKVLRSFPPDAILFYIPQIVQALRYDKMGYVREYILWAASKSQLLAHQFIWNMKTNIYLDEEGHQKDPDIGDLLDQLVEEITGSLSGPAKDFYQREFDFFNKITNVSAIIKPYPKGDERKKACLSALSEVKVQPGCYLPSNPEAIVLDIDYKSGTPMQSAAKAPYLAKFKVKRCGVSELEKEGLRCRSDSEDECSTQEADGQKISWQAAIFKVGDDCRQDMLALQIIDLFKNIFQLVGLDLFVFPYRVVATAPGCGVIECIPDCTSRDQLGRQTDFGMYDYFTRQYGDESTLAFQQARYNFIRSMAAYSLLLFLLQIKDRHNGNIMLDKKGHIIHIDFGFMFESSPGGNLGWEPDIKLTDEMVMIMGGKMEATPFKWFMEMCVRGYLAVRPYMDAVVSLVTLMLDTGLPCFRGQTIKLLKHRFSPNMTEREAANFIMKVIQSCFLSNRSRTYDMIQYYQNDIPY
Protocol: as §2

[8] = molecular target: PI4KIIIβ (Homo sapiens, UniProt Q9UBF8); assay: as above; assay type: biochemical
Chain of PI4KIIIβ (Q9UBF8 whole entry): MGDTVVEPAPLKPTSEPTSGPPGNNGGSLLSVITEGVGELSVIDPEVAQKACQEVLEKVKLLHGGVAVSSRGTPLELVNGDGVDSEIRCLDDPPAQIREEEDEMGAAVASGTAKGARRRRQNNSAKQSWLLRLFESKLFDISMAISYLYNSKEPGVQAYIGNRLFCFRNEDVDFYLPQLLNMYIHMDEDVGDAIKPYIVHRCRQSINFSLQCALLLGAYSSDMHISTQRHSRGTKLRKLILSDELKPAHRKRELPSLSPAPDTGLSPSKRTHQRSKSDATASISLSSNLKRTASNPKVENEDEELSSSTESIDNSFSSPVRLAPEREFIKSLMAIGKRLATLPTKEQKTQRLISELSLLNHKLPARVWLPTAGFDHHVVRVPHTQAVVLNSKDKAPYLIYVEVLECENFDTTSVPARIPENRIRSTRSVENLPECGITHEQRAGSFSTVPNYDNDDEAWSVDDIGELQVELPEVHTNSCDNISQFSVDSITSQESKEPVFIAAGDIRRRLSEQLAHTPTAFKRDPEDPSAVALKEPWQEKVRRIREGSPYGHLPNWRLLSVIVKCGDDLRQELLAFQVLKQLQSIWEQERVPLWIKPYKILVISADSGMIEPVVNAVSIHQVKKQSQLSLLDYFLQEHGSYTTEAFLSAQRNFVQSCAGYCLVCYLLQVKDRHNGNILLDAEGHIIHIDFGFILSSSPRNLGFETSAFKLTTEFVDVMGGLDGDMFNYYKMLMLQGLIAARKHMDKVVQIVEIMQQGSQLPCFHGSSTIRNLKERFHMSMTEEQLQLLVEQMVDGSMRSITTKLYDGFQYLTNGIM
Protocol: as §2

[9] = Metabolic stability in rat liver microsomes; assay type: in vitro ADME; conditions: 5 μM test item, 0.125 mg/mL microsomal protein
Protocol: as §1

[10] = system: polio virus Sabin 1; assay: organism not typed; assay type: cell-based; conditions: read-out: Polio 1 inhibition capacity (IC50)
[11] = in vivo; set-up: species or system Sprague Dawley rats; conditions: Sprague Dawley, rat, po
Protocol: Based on previous toxicity tests with analogs and pharmacokinetic data, repeated dose toxicity and toxicokinetic studies were conducted to generate information on the toxic characteristics of some representative compounds of the invention, viz. Example 8 and Example 12, respectively, when administered orally by gavage to Sprague Dawley rats for a period of 7 consecutive days. The study plan for the studies was by current ICH guidelines for 7 days toxicity studies and the No Observed Adverse Effect Level (NOAEL) of Example 8 and Example 12 was determined as 60 mg/kg body weight/day and 50 mg/kg bodyweight/day respectively when administered once daily orally to Sprague Dawley rats for 7 consecutive days under the tested dose levels and experimental conditions employed.

[12] = system: coxsackie B4 virus; assay: In vitro CPE assay in mammalian cell culture, B4; assay type: cell-based; conditions: Enterovirus B, viral cytopathic effect in mammalian cell culture, read-out: B4 inhibition capacity (IC50)
[13] = system: coxsackie B3 virus; assay: In vitro CPE assay in mammalian cell culture, B3; assay type: cell-based; conditions: Enterovirus B, viral cytopathic effect in mammalian cell culture, read-out: B3 inhibition capacity (IC50)
[14] = system: coxsackie B2 virus; assay: In vitro CPE assay in mammalian cell culture, B2; assay type: cell-based; conditions: viral cytopathic effect in mammalian cell culture, read-out: B2 inhibition capacity (IC50)
[15] = in vivo; set-up: species or system Sprague Dawley rats; conditions: male, Sprague Dawley, rat, po, 50 mg/kg
Protocol: Overnight fasted animals were administered with the test compounds in recommended vehicle 0.4% (v/v) Tween 80+2% (v/v) Glycerol and 15% w/v HPBCD by oral route with a dose of 50 mg/kg body weight at dose volume of 10 mL/kg bw. Under mild isoflurane anesthesia, blood samples were collected into pre-labeled tubes containing anticoagulant (K2EDTA—2 mg/mL blood) during the next 24 hours post dose. Collected blood samples were centrifuged at 4000 rpm, 4° C. for 10 minutes and plasma was separated and stored at −80° C. until analysis.

[16] = system: Enterovirus 6; assay: In vitro CPE assay in mammalian cell culture, EV6; assay type: cell-based; conditions: viral cytopathic effect in mammalian cell culture, read-out: EV6 inhibition capacity (IC50)
[17] = system: Enterovirus 68; assay: In vitro CPE assay in mammalian cell culture, EV68; assay type: cell-based; conditions: Enterovirus D, viral cytopathic effect in mammalian cell culture, read-out: EV68 inhibition capacity (IC50)
[18] = system: coxsackie B1 virus; assay: In vitro CPE assay in mammalian cell culture, B1; assay type: cell-based; conditions: viral cytopathic effect in mammalian cell culture, read-out: B1 inhibition capacity (IC50)
[19] = in vitro; assay type: in vitro ADME; conditions: plasma, pH 7.4
Protocol: Plasma protein binding study was performed by using a Rapid Equilibrium Dialysis (RED) device containing dialysis membrane with a molecular weight cut-off of 8,000 Daltons. Each dialysis insert contains two chambers. The red chamber was for the plasma while the white chamber was for the buffer. The human and rat plasma (pH adjusted to 7.40) samples of test items and reference items (Warfarin and Propranolol) were prepared at a required test concentration of 5 μM using 5 mM DMSO stocks (final DMSO concentration was 0.1%). 300 μL of plasma sample was added into the sample chamber. 500 μL of buffer was added into the buffer chamber. After sealing the RED device with an adhesive film, incubation was done at 37° C. with shaking at 300 rpm for 4 h. Following incubation, an aliquot of 50 μL was removed from each well (plasma and buffer side) and diluted with equal volume of opposite matrix to nullify the matrix effect. The specimens were subjected to sample extraction in presence of internal standard by liquid-liquid extraction/protein precipitation method. After extraction, the samples were transferred into labeled auto sampler vials and submitted to LC-MS/MS analysis.

SMILES: Cc1cc(NCc2ccc(S(C)(=O)=O)cc2)n2nc(C)c(-c3ccc4c(c3)c(C)nn4C)c2n1 [Example 12, 3-(1,3-dimethyl-1H-indazol-5-yl)-2,5-dimethyl-N-(4-(methyl-sulfonyl)benzyl)pyrazolo[1,5-a]pyrimidin-7-amine]
- Remaining after 1 h, HLM ([1]; human liver microsomes, 5 μM test item, 0.125 mg/mL microsomal protein): 84%
- half-life at 5 μM ([1]; human, microsomes): > 2 h
- IC50 [2]: < 1 nM
- IC50 [3]: < 1 nM
- IC50 [4]: > 1000 nM
- IC50 [5]: > 1000 nM
- IC50 [6]: < 10 nM
- IC50 [7]: 800 nM
- IC50 [8]: 0.8 nM
- Remaining after 1 h, RLM [9]: 71%
- IC50 [10]: < 10 nM
- NOAEL at 7 days [11]: 50 mg/kg/day
- IC50 [12]: < 1 nM
- IC50 [13]: < 1 nM
- IC50 [14]: < 10 nM
- AUC(0-inf) [15]: 73300 ± 46900 ng·h/mL
- AUC(0-t) [15]: 30000 ± 8200 ng·h/mL
- AUCextrap [15]: 49.4 ± 24.5%
- Cmax [15]: 1900 ± 100 ng/mL
- MRT last [15]: 10.3 ± 1.2 h
- Tmax [15]: 5.3 ± 2.3 h
- half-life [15]: 27.6 ± 16.8 h
- IC50 [16]: < 10 nM
- IC50 [17]: < 100 nM
- IC50 [18]: < 10 nM
- fraction unbound at 4 h, 5 μM ([19]; human): 0.01
- fraction unbound at 4 h, 5 μM ([19]; rat): 0.015
